In ChEMBL document CHEMBL3124756, “Hepatitis C virus NS5A replication complex inhibitors. Part 6: Discovery of a novel and highly potent biarylimidazole chemotype with inhibitory activity toward genotypes 1a and 1b replicons” (J Med Chem, 2014):

Key:
[1] = test system: Bovine viral diarrhea virus 1; assay: Antiviral activity against Bovine viral diarrhea virus infected in human HuH7 cells by luciferase reporter gene assay; format: functional, organism-based; conditions: Bovine viral diarrhea virus isolates and strains, Huh-7
[2] = Cytotoxicity against human HuH7 cells infected with HCV genotype 1b after 72 hrs by Alamar blue assay; format: cell-based, Huh-7
Hepatitis C virus [3] = assay: Antiviral activity against Hepatitis C virus genotype 1b infected in human HuH7 cells after 72 hrs by FRET assay; format: functional, organism-based, Hepacivirus hominis; conditions: Huh-7, 72 h
Hepatitis C virus [4] = assay: Antiviral activity against Hepatitis C virus genotype 1a infected in human HuH7 cells after 72 hrs by FRET assay; format: functional, organism-based, Hepacivirus hominis; conditions: subtype 1a, Huh-7, 72 h
[5] = Metabolic stability in rat microsomes assessed as compound remaining after 10 mins; format: ADME, microsome; conditions: liver microsomes, read-out: Stability
[6] = Metabolic stability in human liver microsomes assessed as compound remaining after 10 mins; format: ADME; conditions: read-out: Stability
Hepatitis C virus [7] = assay: Antiviral activity against Hepatitis C virus genotype 5a infected in human HuH7 cells by FRET assay; format: functional, organism-based, Hepacivirus hominis; conditions: Huh-7
Hepatitis C virus [8] = assay: Antiviral activity against Hepatitis C virus genotype 4a infected in human HuH7 cells by FRET assay; format: functional, organism-based, Hepacivirus hominis; conditions: Huh-7
Hepatitis C virus [9] = assay: Antiviral activity against Hepatitis C virus genotype 3a YH infected in human HuH7 cells by FRET assay; format: functional, organism-based, Hepacivirus hominis; conditions: subtype 3a YH, Huh-7
Hepatitis C virus [10] = assay: Antiviral activity against Hepatitis C virus genotype 3a infected in human HuH7 cells by FRET assay; format: functional, organism-based, Hepacivirus hominis; conditions: Huh-7
Hepatitis C virus [11] = assay: Antiviral activity against Hepatitis C virus genotype 2a J6 infected in human HuH7 cells by FRET assay; format: functional, organism-based, Hepacivirus hominis; conditions: subtype 2a J6, Huh-7
[12] = Clearance in rat at 2 mg/kg, iv; format: ADME, organism-based; design: dose 2 mg/kg, route intravenous; conditions: in vivo
Hepatitis C virus [13] = assay: Antiviral activity against Hepatitis C virus genotype 1b expressing […] resistant-mutant infected in human HuH7 cells after 72 hrs by FRET assay; format: functional, organism-based, Hepacivirus hominis; conditions: Huh-7, 72 h
Hepatitis C virus [14] = assay: Antiviral activity against Hepatitis C virus genotype 1a infected in human HuH7 cells after 5 days by ELISA; format: functional, organism-based, Hepacivirus hominis; conditions: subtype 1a, Huh-7, 120 h
Salmonella typhimurium [15] = assay: Mutagenic activity in Salmonella typhimurium TA 100 at 1 to 1000 ug/well after 48 hrs by Ames test in presence of rat liver S9 fraction; format: toxicity, organism-based; conditions: salmonella enterica subsp. enterica serovar typhimurium, s9, 48 h
[16] = Drug metabolism in assay medium assessed as parent compound level at 5 uM after 48 hrs by LC/MS analysis; format: physicochemical
Salmonella typhimurium [17] = assay: Mutagenic activity in Salmonella typhimurium TA 100 at 1 to 1000 ug/well after 48 hrs by Ames test; format: toxicity, organism-based; conditions: salmonella enterica subsp. enterica serovar typhimurium
[18] = Plasma concentration in rat at 5 mg/kg, po after 0.17 hrs; format: ADME, organism-based; design: dose 5 mg/kg, route oral
[19] = Permeability of the compound at pH 7.4 by PAMPA; format: physicochemical; conditions: read-out: permeability
[20] = Efflux ratio of permeability from basolateral to apical side over apical to basolateral side in human Caco2 cells; format: ADME, cell-based; conditions: Caco-2
[21] = Oral bioavailability in rat at 5 mg/kg; format: ADME, organism-based; conditions: in vivo
[22] = AUC (24 hrs) in rat at 5 mg/kg, po; format: ADME, organism-based; design: time < 24 hr, dose 5 mg/kg, route oral; conditions: plasma
[23] = AUC (4 hrs) in rat at 5 mg/kg, po; format: ADME, organism-based; design: time < 4 hr, dose 5 mg/kg, route oral; conditions: plasma

Row | EC50 [1] [nM] | EC50 (Hepatitis C virus [3]) [nM] | EC50 (Hepatitis C virus [4]) [nM] | EC50 (Hepatitis C virus [14]) [nM] | SMILES | CC50 at 72 h [2] [nM] | other results
1 | > 10000 | 5.6 | > 400 |  | O=C(Nc1ccc(C#Cc2ccc(NC(=O)[C@@H]3CCCN3C(=O)Cc3ccccc3)cc2)cc1)[C@@H]1CCCN1C(=O)Cc1ccccc1 | > 10000 | 
2 | 110 | 0.011 | 203 |  | COC(=O)N[C@@H](C(=O)N1CCC[C@H]1c1ncc(-c2ccc(-c3ccc(-c4cnc([C@@H]5CCCN5C(=O)OC(C)(C)C)[nH]4)cc3)cc2)[nH]1)c1ccccc1 | > 10000 | 
3 | 1570 | 677 | 568 |  | CN(C)[C@@H](C(=O)N1CCC[C@H]1C(=O)Nc1ccc(-c2cnc(-c3ccc(NC(=O)[C@@H]4CCCN4C(=O)[C@@H](c4ccccc4)N(C)C)cc3)o2)cc1)c1ccccc1 | 6010 | 
4 | 596 | 0.33 | 283 |  | O=C(Cc1ccccc1)N1CCC[C@H]1c1ncc(-c2ccc(-c3ccc(-c4cnc([C@@H]5CCCN5C(=O)Cc5ccccc5)[nH]4)cc3)cc2)[nH]1 | > 10000 | 
5 | > 370 | 0.077 |  | 251 | CN(C)C(C(=O)N1CCC[C@H]1C(=O)Nc1ccc(-c2ncc(-c3ccc4[nH]c([C@@H]5CCCN5C(=O)[C@@H](c5ccccc5)N(C)C)nc4c3)o2)cc1)c1ccccc1 (single isomer, unassigned) | > 10000 | 
6 | 3420 | 0.075 |  | 232 | CN(C)[C@@H](C(=O)N1CCC[C@H]1c1nc2cc(C#Cc3ccc4[nH]c([C@@H]5CCCN5C(=O)[C@@H](c5ccccc5)N(C)C)nc4c3)ccc2[nH]1)c1ccccc1 | 6390 | 
7 | 4960 | < 4.6 |  | 973 | CN(C)[C@@H](C(=O)N1CCC[C@H]1c1nc2cc(-c3cnc(-c4ccc5[nH]c([C@@H]6CCCN6C(=O)[C@@H](c6ccccc6)N(C)C)nc5c4)o3)ccc2[nH]1)c1ccccc1 | > 10000 | 
8 | > 10000 | < 4.6 | > 100 |  | O=C(Cc1ccccc1)N1CCC[C@H]1c1nc2cc(C#Cc3ccc4nc([C@@H]5CCCN5C(=O)Cc5ccccc5)[nH]c4c3)ccc2[nH]1 | > 10000 | 
9 |  | 429 |  |  | O=C(Nc1ccc(-c2cnc(-c3ccc(NC(=O)[C@@H]4CCCN4C(=O)Cc4ccccc4)cc3)o2)cc1)[C@@H]1CCCN1C(=O)Cc1ccccc1 |  | 
10 | 2760 | 102 | 901 |  | CC(C)(C)OC(=O)N1CCC[C@H]1c1ncc(-c2ccc(-c3ccc(-c4cnc([C@@H]5CCCN5C(=O)OC(C)(C)C)[nH]4)cc3)cc2)[nH]1 | 9630 | 
11 | 523 | 0.004 |  | 14.9 | COC(=O)N[C@@H](C(=O)N1CCC[C@H]1c1ncc(-c2ccc(-c3ccc(-c4cnc([C@@H]5CCCN5C(=O)Cc5ccccc5)[nH]4)cc3)cc2)[nH]1)c1ccccc1 | > 10000 | 
12 | 3440 | 0.012 |  | 0.049 | COC(=O)N[C@@H](C(=O)N1CCC[C@H]1c1ncc(-c2ccc(-c3ccc(-c4cnc([C@@H]5CCCN5C(=O)[C@@H](c5ccccc5)N(C)C)[nH]4)cc3)cc2)[nH]1)c1ccccc1 | > 9700 | 

The next lines start with the compound.

Row | SMILES | EC50 [1] [nM] | EC50 (Hepatitis C virus [3]) [nM] | EC50 (Hepatitis C virus [4]) [nM] | EC50 (Hepatitis C virus [14]) [nM] | CC50 at 72 h [2] [nM] | other results
13 | CN(C)[C@@H](C(=O)N1CCC[C@H]1C(=O)Nc1cccc(-c2cnc(-c3cccc(NC(=O)[C@@H]4CCCN4C(=O)[C@@H](c4ccccc4)N(C)C)c3)o2)c1)c1ccccc1 | 1160 | 0.16 | 738 |  | 4730 | 
14 | CN(C)[C@@H](C(=O)N1CCC[C@H]1C(=O)Nc1ccc(-c2cnc(-c3cccc(NC(=O)[C@@H]4CCCN4C(=O)[C@@H](c4ccccc4)N(C)C)c3)o2)cc1)c1ccccc1 | 1220 | 0.39 | 1.6 |  | 5760 | 
15 | COC(=O)N[C@@H](C(=O)N1CCC[C@H]1c1ncc(-c2ccc(-c3ccc(-c4cnc([C@@H]5CCCN5C(=O)[C@H](NC(=O)OC)c5ccccc5)[nH]4)cc3)cc2)[nH]1)c1ccccc1 | 1460 | 0.0067 |  | 0.028 | > 10000 | remaining at 10 min [5]: 100%; remaining at 10 min [6]: 100%; EC50 (Hepatitis C virus [7]): 0.014 nM; EC50 (Hepatitis C virus [8]): 0.0057 nM; EC50 (Hepatitis C virus [9]): 4.4 nM; EC50 (Hepatitis C virus [10]): 0.004 nM; EC50 (Hepatitis C virus [11]): 0.023 nM; clearance [12]: 11.1 mL/min/kg; EC50 (Hepatitis C virus [13]): 166 nM
16 | Nc1ccc(/C=C/c2ccc(NC(=O)[C@@H]3CCCN3C(=O)Cc3ccccc3)cc2)cc1 |  |  |  |  |  | Activity (Salmonella typhimurium [15]): Toxic
17 | CN(C)[C@@H](C(=O)N1CCC[C@H]1c1nc2cc(C#Cc3ccc4oc([C@@H]5CCCN5C(=O)[C@@H](c5ccccc5)N(C)C)nc4c3)ccc2o1)c1ccccc1 | 1390 | > 1000 |  | > 1000 | 4450 | 
18 | CN(C)[C@H](C(=O)N1CCC[C@H]1c1ncc(-c2ccc(-c3ccc(-c4cnc([C@@H]5CCCN5C(=O)[C@H](c5ccccc5)N(C)C)[nH]4)cc3)cc2)[nH]1)c1ccccc1 | 1270 | 5.4 |  | 704 | 3610 | 
19 | O=C(Cc1ccccc1)N1CCC[C@H]1c1nc2cc(C#Cc3ccc4oc([C@@H]5CCCN5C(=O)Cc5ccccc5)nc4c3)ccc2o1 | 412 | > 1000 |  | > 1000 | > 10000 | Drug metabolism [16]: Active
20 | CN(C)[C@@H](C(=O)N1CCC[C@H]1C(=O)Nc1cccc(-c2ncc(-c3ccc4nc([C@@H]5CCCN5C(=O)[C@@H](c5ccccc5)N(C)C)[nH]c4c3)o2)c1)c1ccccc1 | 3090 | 0.14 |  | 3.5 | 8610 | EC50 (Hepatitis C virus [13]): > 1000 nM
21 | O=C(Nc1ccc(/C=C/c2ccc(NC(=O)[C@@H]3CCCN3C(=O)Cc3ccccc3)cc2)cc1)[C@@H]1CCCN1C(=O)Cc1ccccc1 |  |  |  |  |  | Activity (Salmonella typhimurium [17]): Non-toxic; Activity (Salmonella typhimurium [15]): Non-toxic
22 | CN(C)[C@@H](C(=O)N1CCC[C@H]1c1ncc(-c2ccc(-c3ccc(-c4cnc([C@@H]5CCCN5C(=O)[C@@H](c5ccccc5)N(C)C)[nH]4)cc3)cc2)[nH]1)c1ccccc1 | 2350 | 0.042 |  | 0.037 | 5860 | concentration at 0.17 h [18]: 20 nM; Papp [19]: 0.7 ×10⁻⁶ cm/s; remaining at 10 min [5]: 100%; remaining at 10 min [6]: 100%; EC50 (Hepatitis C virus [7]): 0.032 nM; EC50 (Hepatitis C virus [8]): 0.013 nM; EC50 (Hepatitis C virus [9]): 3.8 nM; EC50 (Hepatitis C virus [10]): 0.015 nM; EC50 (Hepatitis C virus [11]): 0.032 nM; clearance [12]: 17.4 mL/min/kg; EC50 (Hepatitis C virus [13]): 233 nM
23 | COC(=O)N[C@@H](C(=O)N1CCC[C@H]1c1nc2cc(C#Cc3ccc4[nH]c([C@@H]5CCCN5C(=O)[C@H](NC(=O)OC)c5ccccc5)nc4c3)ccc2[nH]1)c1ccccc1 | > 10000 | 0.055 |  | 108 | > 10000 | efflux ratio [20]: ≥ 7.2; bioavailability [21]: < 1%; AUC at 24 h [22]: 0.539 µM·h; clearance [12]: 1.1 mL/min/kg; AUC at 4 h [23]: 0.466 µM·h; EC50 (Hepatitis C virus [13]): > 3330 nM
24 | O=C(Cc1ccccc1)N1CCC[C@H]1c1nc2ccc(C#Cc3ccc4nc([C@@H]5CCCN5C(=O)Cc5ccccc5)oc4c3)cc2o1 | 7980 | > 1000 |  | > 1000 | > 10000 | Drug metabolism [16]: Active
25 | CN(C)[C@@H](C(=O)N1CCC[C@H]1c1nc2ccc(C#Cc3ccc4nc([C@@H]5CCCN5C(=O)[C@@H](c5ccccc5)N(C)C)oc4c3)cc2o1)c1ccccc1 | 390 | < 4.6 |  | > 1000 | 2720 | EC50 (Hepatitis C virus [13]): > 1000 nM
